Numbers after ± are expanded uncertainties.
Assay: refractive index (Na D-line) (dimensionless); xn = mol fraction of the nth substance listed
Settings: 101.3 kPa, Liquid, Standard Abbe refractometry

CCCC[n+]1ccn(C)c1.O=S(=O)([N-]S(=O)(=O)C(F)(F)F)C(F)(F)F + COC(=O)OC
refractive index
Settings | 303.15 K | 308.15 K | 313.15 K | 318.15 K | 323.15 K
x1 = 0.0512 | 1.3757 ± 0.0011 | 1.3741 ± 0.0011 | 1.3744 ± 0.0011 | 1.3724 ± 0.0011 | 1.3719 ± 0.0011
x1 = 0.101 | 1.3844 ± 0.0011 | 1.383 ± 0.0011 | 1.3836 ± 0.0011 | 1.3819 ± 0.0011 | 1.3817 ± 0.0011
x1 = 0.1495 | 1.3913 ± 0.0011 | 1.39 ± 0.0011 | 1.3907 ± 0.0011 | 1.3892 ± 0.0011 | 1.3893 ± 0.0011
x1 = 0.1945 | 1.3965 ± 0.0011 | 1.3953 ± 0.0011 | 1.3959 ± 0.0011 | 1.3946 ± 0.0011 | 1.3948 ± 0.0011
x1 = 0.2994 | 1.4053 ± 0.0011 | 1.4042 ± 0.0011 | 1.4042 ± 0.0011 | 1.403 ± 0.0011 | 1.4033 ± 0.0011
x1 = 0.3999 | 1.4106 ± 0.0011 | 1.4095 ± 0.0011 | 1.4089 ± 0.0011 | 1.4077 ± 0.0011 | 1.4078 ± 0.0011
x1 = 0.4976 | 1.4141 ± 0.0011 | 1.4131 ± 0.0011 | 1.4119 ± 0.0011 | 1.4107 ± 0.0011 | 1.4106 ± 0.0011
x1 = 0.5842 | 1.4165 ± 0.0011 | 1.4155 ± 0.0011 | 1.414 ± 0.0011 | 1.4128 ± 0.0011 | 1.4126 ± 0.0011
x1 = 0.6886 | 1.4191 ± 0.0011 | 1.4181 ± 0.0011 | 1.4166 ± 0.0011 | 1.4154 ± 0.0011 | 1.4149 ± 0.0011
x1 = 0.7475 | 1.4204 ± 0.0011 | 1.4195 ± 0.0011 | 1.418 ± 0.0011 | 1.4168 ± 0.0011 | 1.4162 ± 0.0011
x1 = 0.8014 | 1.4216 ± 0.0011 | 1.4207 ± 0.0011 | 1.4193 ± 0.0011 | 1.4181 ± 0.0011 | 1.4172 ± 0.0011
x1 = 0.889 | 1.4233 ± 0.0011 | 1.4223 ± 0.0011 | 1.4208 ± 0.0011 | 1.4196 ± 0.0011 | 1.4185 ± 0.0011
x1 = 0.9526 | 1.4242 ± 0.0011 | 1.423 ± 0.0011 | 1.4213 ± 0.0011 | 1.4199 ± 0.0011 | 1.4183 ± 0.0011
x1 = 1 | 1.4245 ± 0.0011 | 1.4231 ± 0.0011 | 1.421 ± 0.0011 | 1.4195 ± 0.0011 | 1.4173 ± 0.0011
